For orientation: Kd means the concentration at which binding is half-saturated.

Assay [1] deals with first bromodomain of BRD4 (Homo sapiens (Human), UniProt O60885). Put plainly: Bromoscan binding assay BRD4 (1). To be noted: for Kd: Bromoscan, geometric mean where multiple measurements have been made; for Selectivity BRD4(2)/BRD4(1): ratio BRD4(2) Kd / BRD4(1) Kd. The procedure: (§1) Compounds were assayed for binding affinity using bromoscan assays and a phosphodiesterase three assay.
(§2) Bromoscan assays were run by DiscoveRx Corporation. The relevant assay names are BRD4 (1) for the first bromodomain of BRD4 and BRD4 (2) for the second bromodomain of BRD4. Further Bromoscan assays covering other bromodomains may be employed to establish the selectivity profile of a compound of interest. To run the Bromoscan assay, a T7 phage strain displaying the relevant bromodomain was grown in parallel in 24-well blocks in an E. coli host derived from the BL21 strain. E. coli were grown to log-phase and infected with T7 phage from a frozen stock (multiplicity of infection=0.4) and incubated with shaking at 32° C. until lysis (90-150 minutes). The lysates were centrifuged (5,000×g) and filtered (0.2 μm) to remove cell debris. […] The liganded beads were blocked with excess biotin and washed with blocking buffer (SeaBlock (Pierce), 1% BSA (bovine serum albumin), 0.05% Tween 20, 1 mM DTT (dithiothreitol)) to remove unbound ligand and to reduce non-specific phage binding. […] Test compounds were prepared as 1000× stocks in 100% DMSO and subsequently diluted 1:10 in monoethylene glycol (MEG) to create stocks at 100× the screening concentration (resulting stock solution is 10% DMSO/90% MEG). The compounds were then diluted directly into the assays such that the final concentration of DMSO and MEG were 0.1% and 0.9%, respectively. All reactions were performed in polystyrene 96-well plates in a final volume of 0.135 ml. […] The bromodomain concentration in the eluates was measured by qPCR (quantitative real-time polymerase chain reaction). Binding constants (Kds) were calculated with a standard dose-response curve using the Hill equation: Response=Blackground+((Signal-Background)/(1+Kd^Hill Slope/Dose^Hill Slope)). The Hill Slope was set to −1. Curves were fitted using a non-linear least square fit with the Levenberg-Marquardt algorithm.

In assay [2] the target is second bromodomain of BRD4 (Homo sapiens (Human), UniProt O60885). The assay is described as follows: Bromoscan binding assay BRD4 (2). To be noted: geometric mean where multiple measurements have been made. The procedure:
as §1, §2

On to `COc1cc(NC(=O)c2cc3c(nc2N2C[C@H]4CCO[C@H]4C2)COC3)cc2c(C)cc(=O)[nH]c12` (racemic) [Example 22, N-(8-methoxy-4-methyl-2-oxo-1H-quinolin-6-yl)-2-[rac-(3aR,6aR)-2,3,3a,4,6,6a-hexahydrofuro[2,3-c]pyrrol-5-yl]-5,7-dihydrofuro[3,4-b]pyridine-3-carboxamide], for which, in assay [1], the dissociation constant (Kd) turned out to be 170 nM and the “Selectivity BRD4(2)/BRD4(1)” value is recorded as 22. In assay [2], this molecule registered a Kd of 3800 nM.

On to `COc1cc(NC(=O)c2cc3c(nc2C2=CCCC2)COC3)cc2c(C)cc(=O)[nH]c12` [Example 3, 2-(cyclopenten-1-yl)-N-(8-methoxy-4-methyl-2-oxo-1H-quinolin-6-yl)-5,7-dihydrofuro[3,4-b]pyridine-3-carboxamide], for which, in assay [1], the Kd is 13 nM and the “Selectivity BRD4(2)/BRD4(1)” value was 62. The molecule further displayed a Kd in assay [2] of 800 nM.

For `COc1cc(NC(=O)c2cc3c(nc2N2CC4CC2(C)C4)COC3)cc2c(C)cc(=O)[nH]c12` [Example 4, N-(8-methoxy-4-methyl-2-oxo-1H-quinolin-6-yl)-2-(1-methyl-2-azabicyclo[2.1.1]hexan-2-yl)-5,7-dihydrofuro[3,4-b]pyridine-3-carboxamide], in assay [1], the dissociation constant (Kd) was 29 nM and the “Selectivity BRD4(2)/BRD4(1)” value is given as >172. In assay [2], the Kd was > 5000 nM.

For the molecule `COc1cc(NC(=O)c2cc3c(nc2N2CC4C(C2)C4(F)F)COC3)cc2c(C)cc(=O)[nH]c12` (centres unmarked) [Example 5, 2-(6,6-difluoro-3-azabicyclo[3.1.0]hexan-3-yl)-N-(8-methoxy-4-methyl-2-oxo-1H-quinolin-6-yl)-5,7-dihydrofuro[3,4-b]pyridine-3-carboxamide], in assay [1], the Kd came out at 17 nM and the “Selectivity BRD4(2)/BRD4(1)” value amounted to 12. In assay [2], this molecule displayed a Kd of 200 nM.

Consider `Cc1cc(=O)[nH]c2c3c(c(NC(=O)c4cc5c(nc4N4CCOCC4)COC5)cc12)CCO3` [Example 8, N-(6-methyl-8-oxo-3,9-dihydro-2H-furo[3,2-h]quinolin-4-yl)-2-morpholino-5,7-dihydrofuro[3,4-b]pyridine-3-carboxamide], for which the equilibrium dissociation constant (Kd) in assay [1] was 56 nM; in assay [2], > 2500 nM. For the same molecule, the “Selectivity BRD4(2)/BRD4(1)” value in assay [1] was 45.

As to `COc1c(F)c(NC(=O)c2cc3c(nc2N2CCOCC2)COC3)cc2c(C)cc(=O)[nH]c12` [Example 9, N-(7-fluoro-8-methoxy-4-methyl-2-oxo-1H-quinolin-6-yl)-2-morpholino-5,7-dihydrofuro[3,4-b]pyridine-3-carboxamide], in assay [1], the Kd was found to be 440 nM and the “Selectivity BRD4(2)/BRD4(1)” value was found to be 17. For the same molecule, binding in assay [2] was characterised by a dissociation constant (Kd) of 7400 nM.

In the case of `Cc1cc(=O)[nH]c2c3c(c(NC(=O)c4cc5c(nc4N4CCOCC4)COC5)cc12)OCCO3` [Example 10, N-(7-methyl-9-oxo-3,10-dihydro-2H-[1,4]dioxino[2,3-h]quinolin-5-yl)-2-morpholino-5,7-dihydrofuro[3,4-b]pyridine-3-carboxamide], in assay [1], the affinity, expressed as Kd, was 43 nM and the “Selectivity BRD4(2)/BRD4(1)” value was >232. Moreover, in assay [2], the equilibrium dissociation constant (Kd) was > 10000 nM.

With `COc1cc2[nH]c(=O)cc(C)c2cc1NC(=O)c1cc2c(nc1N1CCOCC1)COC2` [Example 14, N-(7-methoxy-4-methyl-2-oxo-1H-quinolin-6-yl)-2-morpholino-5,7-dihydrofuro[3,4-b]pyridine-3-carboxamide], in assay [1], the affinity, expressed as Kd, was 26 nM and the “Selectivity BRD4(2)/BRD4(1)” value amounted to 15. Moreover, the equilibrium dissociation constant (Kd) in assay [2] is 400 nM.

`COc1cc(NC(=O)c2cc3c(nc2N2CCC(F)(F)C2)COC3)cc2c(C)cc(=O)[nH]c12` [Example 16, 2-(3,3-difluoropyrrolidin-1-yl)-N-(8-methoxy-4-methyl-2-oxo-1H-quinolin-6-yl)-5,7-dihydrofuro[3,4-b]pyridine-3-carboxamide]: in assay [1], the “Selectivity BRD4(2)/BRD4(1)” value amounted to 43.

With `COc1cc(NC(=O)c2cc3c(nc2N2CCC[C@H]2C)COC3)cc2c(C)cc(=O)[nH]c12` [Example 18, N-(8-methoxy-4-methyl-2-oxo-1H-quinolin-6-yl)-2-[(2R)-2-methylpyrrolidin-1-yl]-5,7-dihydrofuro[3,4-b]pyridine-3-carboxamide], in assay [1], the Kd came out at 12 nM and the “Selectivity BRD4(2)/BRD4(1)” value is 17. Further, the Kd in assay [2] was 200 nM.

Take `COc1cc(NC(=O)c2cc3c(nc2N2CC4CCOC4C2)COC3)cc2c(C)cc(=O)[nH]c12` (centres unmarked) [Example 19, 2-(2,3,3a,4,6,6a-hexahydrofuro[2,3-c]pyrrol-5-yl)-N-(8-methoxy-4-methyl-2-oxo-1H-quinolin-6-yl)-5,7-dihydrofuro[3,4-b]pyridine-3-carboxamide]: in assay [1], binding was put at a Kd of 180 nM and the “Selectivity BRD4(2)/BRD4(1)” value is 31. In assay [2], this molecule gave a Kd of 5600 nM.

Consider `COc1cc(NC(=O)c2cc3c(nc2N2CC4COCC4C2)COC3)cc2c(C)cc(=O)[nH]c12` (centres unmarked) [Example 20, 2-(1,3,3a,4,6,6a-hexahydrofuro[3,4-c]pyrrol-5-yl)-N-(8-methoxy-4-methyl-2-oxo-1H-quinolin-6-yl)-5,7-dihydrofuro[3,4-b]pyridine-3-carboxamide], for which the figures for the dissociation constant (Kd) in assay [1] and in assay [2] were 70 nM and 3400 nM, respectively. Moreover, the “Selectivity BRD4(2)/BRD4(1)” value in assay [1] was determined as 49.

Turning to `COc1cc(NC(=O)c2cc3c(nc2N2C4CCCC2CC4)COC3)cc2c(C)cc(=O)[nH]c12` [Example 21, 2-(8-azabicyclo[3.2.1]octan-8-yl)-N-(8-methoxy-4-methyl-2-oxo-1H-quinolin-6-yl)-5,7-dihydrofuro[3,4-b]pyridine-3-carboxamide], in assay [1], binding was characterised by a dissociation constant (Kd) of 6 nM and the “Selectivity BRD4(2)/BRD4(1)” value is 233. In assay [2], the Kd is 1400 nM.

Consider `COc1cc(NC(=O)c2cc3c(nc2N2CCC[C@@H]2C)COC3)cc2c(C)cc(=O)[nH]c12` [Example 25, N-(8-methoxy-4-methyl-2-oxo-1H-quinolin-6-yl)-2-[(2S)-2-methylpyrrolidin-1-yl]-5,7-dihydrofuro[3,4-b]pyridine-3-carboxamide], for which, in assay [1], the dissociation constant Kd was 150 nM and the “Selectivity BRD4(2)/BRD4(1)” value is 30. In assay [2], this molecule had an equilibrium dissociation constant (Kd) of 4500 nM.

Turning to `CCN(CC)c1nc2c(cc1C(=O)Nc1cc(OC)c3[nH]c(=O)cc(C)c3c1)COC2` [Example 27, 2-(diethylamino)-N-(8-methoxy-4-methyl-2-oxo-1H-quinolin-6-yl)-5,7-dihydrofuro[3,4-b]pyridine-3-carboxamide], the “Selectivity BRD4(2)/BRD4(1)” value in assay [1] is recorded as 24.

In the case of `CCN(c1nc2c(cc1C(=O)Nc1cc(OC)c3[nH]c(=O)cc(C)c3c1)COC2)C(C)C` [Example 28, 2-[ethyl(isopropyl)amino]-N-(8-methoxy-4-methyl-2-oxo-1H-quinolin-6-yl)-5,7-dihydrofuro[3,4-b]pyridine-3-carboxamide], in assay [1], the dissociation constant Kd came out at 33 nM and the “Selectivity BRD4(2)/BRD4(1)” value is 30. In assay [2], this molecule had a Kd of 1000 nM.

As to `COc1cc(NC(=O)c2cc3c(nc2N2CCOCC2)CO[C@@H]3C)cc2c(C)cc(=O)[nH]c12` [Example 30, (5R)—N-(8-methoxy-4-methyl-2-oxo-1H-quinolin-6-yl)-5-methyl-2-morpholino-5,7-dihydrofuro[3,4-b]pyridine-3-carboxamide], in assay [1], binding was characterised by a dissociation constant (Kd) of 14 nM and the “Selectivity BRD4(2)/BRD4(1)” value was 86. Besides, the Kd in assay [2] was 1200 nM.

In the case of `COc1cc(NC(=O)c2cc3c(nc2N2CCOCC2)COC3C)cc2c(C)cc(=O)[nH]c12` (centres unmarked) [Example 31, N-(8-methoxy-4-methyl-2-oxo-1H-quinolin-6-yl)-5-methyl-2-morpholino-5,7-dihydrofuro[3,4-b]pyridine-3-carboxamide], the Kd in assay [1] is 22 nM; in assay [2] it was 1000 nM. The “Selectivity BRD4(2)/BRD4(1)” value in assay [1] is given as 45.

On to `COc1cc(NC(=O)c2cc3c(nc2N2CCOCC2)CN(C)C3)cc2c(C)cc(=O)[nH]c12` [Example 32, N-(8-methoxy-4-methyl-2-oxo-1H-quinolin-6-yl)-6-methyl-2-morpholino-5,7-dihydropyrrolo[3,4-b]pyridine-3-carboxamide], for which the Kd in assay [1] was 17 nM; in assay [2], 300 nM. Moreover, the “Selectivity BRD4(2)/BRD4(1)” value in assay [1] is 18.

Regarding `COc1cc(NC(=O)c2cc3c(nc2N2CCOCC2)CN(C2COC2)C3)cc2c(C)cc(=O)[nH]c12` [Example 33, N-(8-methoxy-4-methyl-2-oxo-1H-quinolin-6-yl)-2-morpholino-6-(oxetan-3-yl)-5,7-dihydropyrrolo[3,4-b]pyridine-3-carboxamide], the Kd in assay [1] worked out at 13 nM; in assay [2] it was 300 nM. For the same molecule, in assay [1], the “Selectivity BRD4(2)/BRD4(1)” value was 23.

With `CCN1Cc2cc(C(=O)Nc3cc(OC)c4[nH]c(=O)cc(C)c4c3)c(N3CCOCC3)nc2C1` [Example 34, 6-ethyl-N-(8-methoxy-4-methyl-2-oxo-1H-quinolin-6-yl)-2-morpholino-5,7-dihydropyrrolo[3,4-b]pyridine-3-carboxamide], in assay [1], the Kd is 25 nM and the “Selectivity BRD4(2)/BRD4(1)” value amounted to 32. In assay [2], this molecule had a Kd of 800 nM.

(Values after patent US20250382308A1, “COMPOUNDS ACTIVE TOWARDS BROMODOMAINS” (NUEVOLUTION A/S, priority 2022, published 2025).)
